Assay results taken from US20100173885A1, “ORGANOMETEALLIC COMPOUNDS” (priority 2007, published 2010).

Key:
[1] = Fluorescence quantum yield of photosensitizers; assay type: physicochemical; conditions: in MeOH at 648 nm after 410 nm excitation
Method: The UV-visible absorption spectra were recorded on an Uvikon 930 spectrophotometer and fluorescence spectra on a Perkin-Elmer LS50 spectrofluorometer.

RAW macrophages = test: Phototoxicity in RAW macrophages, irradiation at 652 nm, MTT test; assay type: cell-based; conditions: RAW cells, 10 μM, 20 mW/cm^2, MTT 24 h after irradiation
Method: RAW cells were grown in 96-well cell culture plates (Corning, N.Y.) until 75% confluent in DMEM medium containing 10% FCS. The culture media were replaced with fresh medium containing the Ru, Os or Rh-porphyrin analogs at 10 μM (minimal dark cytotoxicity) and the cells were exposed overnight to the compounds. Then, the media were replaced with DMEM without phenol red containing 10% FCS and cells were irradiated at 652 nm using a diode laser (Applied Optronics, South Plainfield, N.J.) coupled to a frontal diffuser (Medlight SA, Ecublens, Switzerland), at an irradiance of 20 mW/cm^2. Experiments were performed in triplicate wells. Cell viability was evaluated 24 h later using the MTT test. Briefly, 3-(4,5-dimethyl-2-thiazoyl)-2,5-diphenyltetrazolium bromide (MTT, Merck) was added at 250 μg/mL and incubation was continued for 2 h, then the cell culture supernatants were removed. The cell layers were dissolved in iPrOH/0.04N HCl and the absorbance measured at 540 nm in a multiwell-plate reader (iEMS Reader MF, Labsystems, Bioconcept, Switzerland) and compared to the values of control cells incubated with the nanoparticles but without laser irradiation.

Molecule | fluorescence quantum yield φf [1] [%] | photosensitivity (photosensitizer ranking) (RAW macrophages)
C1=Cc2nc1c(-c1ccncc1)c1ccc([nH]1)c(-c1ccncc1)c1nc(c(-c3ccncc3)c3ccc([nH]3)c2-c2ccncc2)C=C1 [TPP, 5,10,15,20-tetra(4-pyridyl)porphyrin, reference compound] | 10.4 | –
[Ir4(η^5-Cp*)4(TPP)Cl8] [Compound 8] | 4.5 | –
[OS4(η^6-p-Pr^iC6H4Me)4(TPP)Cl8] [Compound 6] | 7.0 | –
[Rh4(η^5-Cp*)4(TPP)Cl8] [Compound 7] | 7.9 | –
[Ru4(η^6-1,4-C6H4(COOEt)2)4(TPP)Cl8] [Compound 5] | 7.2 | –
[Ru4(η^6-C6H5CH3)4(TPP)Cl8] [Compound 2] | 7.4 | best photosensitizers amongst the Ru-porphyrin compounds
[Ru4(η^6-C6H6)4(TPP)Cl8] [Compound 1] | 6.1 | best photosensitizers amongst the Ru-porphyrin compounds
[Ru4(η^6-C6Me6)4(TPP)Cl8] [Compound 4] | 7.3 | –
[Ru4(η^6-p-Pr^iC6H4Me)4(TPP)Cl8] [Compound 3] | 7.9 | –
